Assay results: ChEMBL document CHEMBL3286257, “Development of second generation EP2 antagonists with high selectivity” (Eur J Med Chem, 2014)
Values after ≈ are worked out from the molar mass of the structure shown.

Key:
[1] = Metabolic stability of the compound in human liver microsomes assessed as compound remaining at 10 uM after 30 mins; type: ADME; settings: read-out: Stability
[2] = Aqueous solubility of the compound by nephelometry method; type: physicochemical; settings: buffer
[3] = Metabolic stability of the compound in human liver microsomes assessed as compound remaining at 10 uM after 15 mins; type: ADME; settings: read-out: Stability
[4] = Metabolic stability of the compound in mouse liver microsomes assessed as compound remaining at 10 uM after 30 mins; type: ADME; settings: read-out: Stability
[5] = Metabolic stability of the compound in mouse liver microsomes assessed as compound remaining at 10 uM after 60 mins; type: ADME; settings: read-out: Stability
[6] = molecular target: Prostaglandin E2 receptor EP2 subtype (Homo sapiens) (UniProt P43116); experiment: Antagonist activity at EP2 receptor (unknown origin) expressed in rat C6 cells assessed as inhibition of PGE2-induced response; type: cell-based
Prostaglandin E2 receptor EP2 subtype (Homo sapiens), sequence (P43116 whole entry): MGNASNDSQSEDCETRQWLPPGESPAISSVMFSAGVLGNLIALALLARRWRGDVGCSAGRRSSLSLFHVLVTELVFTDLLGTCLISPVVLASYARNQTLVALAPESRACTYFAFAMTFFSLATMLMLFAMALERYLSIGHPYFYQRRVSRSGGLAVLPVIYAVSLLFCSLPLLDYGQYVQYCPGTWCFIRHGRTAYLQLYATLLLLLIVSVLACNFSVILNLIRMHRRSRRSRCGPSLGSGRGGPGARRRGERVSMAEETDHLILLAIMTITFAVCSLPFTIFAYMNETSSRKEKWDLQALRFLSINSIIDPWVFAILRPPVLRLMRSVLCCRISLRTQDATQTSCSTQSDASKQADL

[7] = Metabolic stability of the compound in mouse liver microsomes assessed as compound remaining at 10 uM after 15 mins; type: ADME; settings: read-out: Stability
[8] = Metabolic stability of the compound in human liver microsomes assessed as compound remaining at 10 uM after 60 mins; type: ADME; settings: read-out: Stability
EP2 receptor = experiment: Therapeutic index, ratio of CC50 for rat C6 cells to KB for EP2 receptor (unknown origin); type: cell-based; settings: read-out: TI
Homo sapiens [9] = species: Homo sapiens; experiment: Selectivity index, ratio of KB for EP4 receptor (unknown origin) to KB for EP2 receptor (unknown origin)
Homo sapiens [10] = species: Homo sapiens; experiment: Selectivity index, ratio of KB for DP1 receptor (unknown origin) to KB for EP2 receptor (unknown origin)
[11] = molecular target: Prostaglandin E2 receptor EP4 subtype (Homo sapiens) (UniProt P35408); experiment: Antagonist activity at EP4 receptor (unknown origin) expressed in rat C6 cells assessed as inhibition of PGE2-induced response; type: cell-based
Prostaglandin E2 receptor EP4 subtype (Homo sapiens), sequence (P35408 whole entry): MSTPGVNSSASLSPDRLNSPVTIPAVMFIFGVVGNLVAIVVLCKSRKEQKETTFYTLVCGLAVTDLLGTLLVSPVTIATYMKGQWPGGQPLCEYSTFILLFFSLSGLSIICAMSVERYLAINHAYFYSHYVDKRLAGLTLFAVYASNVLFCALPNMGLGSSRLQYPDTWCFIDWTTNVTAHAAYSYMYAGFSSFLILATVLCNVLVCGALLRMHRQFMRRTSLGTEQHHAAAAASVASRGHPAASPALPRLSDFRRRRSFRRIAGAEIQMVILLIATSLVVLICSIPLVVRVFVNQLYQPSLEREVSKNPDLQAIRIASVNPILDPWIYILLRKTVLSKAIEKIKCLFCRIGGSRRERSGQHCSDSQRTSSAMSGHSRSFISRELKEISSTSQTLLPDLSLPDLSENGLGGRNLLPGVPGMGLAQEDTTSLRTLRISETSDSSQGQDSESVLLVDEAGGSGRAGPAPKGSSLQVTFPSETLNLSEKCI

C6 = experiment: Cytotoxicity against rat C6 cells; type: cell-based; settings: c6
[12] = molecular target: T1, Prostaglandin D2 receptor (Homo sapiens) (UniProt Q13258); experiment: Antagonist activity at DP1 receptor (unknown origin) expressed in rat C6 cells by TR-FRET assay; type: cell-based
T1 sequence (whole entry): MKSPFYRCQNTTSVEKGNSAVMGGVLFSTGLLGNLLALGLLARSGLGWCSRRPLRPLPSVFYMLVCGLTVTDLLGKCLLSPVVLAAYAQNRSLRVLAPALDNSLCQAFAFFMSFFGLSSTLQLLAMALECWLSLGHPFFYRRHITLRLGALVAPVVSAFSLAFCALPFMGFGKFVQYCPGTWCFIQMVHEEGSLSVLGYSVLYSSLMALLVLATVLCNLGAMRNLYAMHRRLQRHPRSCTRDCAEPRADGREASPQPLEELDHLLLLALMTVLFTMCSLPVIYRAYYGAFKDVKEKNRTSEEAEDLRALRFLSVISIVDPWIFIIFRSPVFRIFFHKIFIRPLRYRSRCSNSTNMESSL

Homo sapiens [13] = species: Homo sapiens; experiment: Selectivity index, ratio of KB for IP receptor (unknown origin) to KB for EP2 receptor (unknown origin)
[14] = molecular target: Prostacyclin receptor (Homo sapiens) (UniProt P43119); experiment: Antagonist activity at IP receptor (unknown origin) expressed in rat C6 cells by TR-FRET assay; type: cell-based
Prostacyclin receptor (Homo sapiens), sequence (P43119 whole entry): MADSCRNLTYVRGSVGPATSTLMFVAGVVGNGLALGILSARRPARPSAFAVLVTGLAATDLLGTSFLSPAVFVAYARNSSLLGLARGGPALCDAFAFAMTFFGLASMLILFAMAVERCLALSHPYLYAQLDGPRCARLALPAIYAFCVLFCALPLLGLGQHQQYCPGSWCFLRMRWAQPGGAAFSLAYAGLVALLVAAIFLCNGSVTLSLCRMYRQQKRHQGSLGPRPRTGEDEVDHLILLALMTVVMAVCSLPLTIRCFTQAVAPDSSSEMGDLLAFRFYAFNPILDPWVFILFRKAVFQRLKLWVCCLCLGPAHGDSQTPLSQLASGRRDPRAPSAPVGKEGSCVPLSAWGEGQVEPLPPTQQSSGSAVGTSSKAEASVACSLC

[15] = molecular target: Prostaglandin E2 receptor EP2 subtype (Homo sapiens) (UniProt P43116); experiment: Competitive antagonist activity at human EP2 receptor assessed as inhibition of PGE2-induced response

| SMILES | remaining at 0.5 h, 10 µM [1] [%] | solubility kinetic [2] [µM] | remaining at […], 10 µM [3] [%] | remaining at 0.5 h, 10 µM [4] [%] | remaining at 1 h, 10 µM [5] [%] | Kb [6] [nM] | remaining at […], 10 µM [7] [%] | remaining at 1 h, 10 µM [8] [%] | also measured |
| --- | --- | --- | --- | --- | --- | --- | --- | --- | --- |
| Cc1cc2ccccc2n1CCNC(=O)c1cnc(Nc2ccccc2)nc1 | 67 | < 25 | 88 | 59 | 35 | 1.6 | 71 | 50 |  |
| Cc1cc2ccccc2n1CCNC(=O)c1ccc(N2CCC(O)CC2)cc1 | 49 | 160 (≈ 60.4 µg/mL) | 66 | 12 | 2 | 26.8 | 35 | 31 | selectivity ratio (EP2 receptor): 6080; Ratio (Homo sapiens [9]): 2620; Ratio (Homo sapiens [10]): 172; Kb [11]: 70300 nM; CC50 (C6): 163000 nM; Kb [12]: 4620 nM; Ratio (Homo sapiens [13]): 675; Kb [14]: 18100 nM |
| Cc1cc2ccccc2n1CCNC(=O)c1ccc(C(N)=O)cc1 |  |  |  |  |  | 150 |  |  |  |
| CCCN(CCC)c1ccc(C(=O)NCCn2c(C)cc3ccccc32)cc1 | 20 | < 25 | 40 | 26 | 6 | 11.9 | 30 | 5 | selectivity ratio (EP2 receptor): 28100; Ratio (Homo sapiens [9]): 1320; Ratio (Homo sapiens [10]): 298; Kb [11]: 15500 nM; CC50 (C6): 332000 nM; Kb [12]: 3550 nM; Ratio (Homo sapiens [13]): 95; Kb [14]: 1120 nM |
| Cc1cc2ccccc2n1CCNC(=O)c1cccc(N2CCOCC2)c1 |  |  |  |  |  | > 1000 |  |  |  |
| Cc1cc2ccccc2n1CCNC(=O)c1ccc(N2CCOCC2)cc1 | 38 | 67 (≈ 24.4 µg/mL) | 58 | 5 | 0 | 9.6 | 8 | 22 | Kb [15]: 16.1 nM; selectivity ratio (EP2 receptor): 30100; Ratio (Homo sapiens [9]): 2190; Ratio (Homo sapiens [10]): 533; Kb [11]: 21000 nM; CC50 (C6): 289000 nM; Kb [12]: 5210 nM; Ratio (Homo sapiens [13]): 206; Kb [14]: 1980 nM |
| Cc1[nH]c2ccccc2c1CCNC(=O)c1ccc(N2CCCCC2)cc1 |  |  |  |  |  | 19.8 |  |  |  |
| Cc1cc2ccccc2n1CCNC(=O)c1ccc(C(=O)OC(C)(C)C)cc1 |  |  |  |  |  | 100 |  |  |  |
| Cc1cc2ccccc2n1CCNC(=O)c1ccc(CN2CCOCC2)cc1 |  |  |  |  |  | 970 |  |  |  |
| O=C(NC1CCc2[nH]c3ccccc3c2C1)c1ccc(N2CCOCC2)cc1 (stereo not given) |  |  |  |  |  | > 1000 |  |  |  |
| CC(=O)Nc1ccc(C(=O)NCCn2c(C)cc3ccccc32)cc1F |  |  |  |  |  | 530 |  |  |  |
| Cc1cc2ccccc2n1CCNC(=O)c1ccc(OC2CCNCC2)cc1 |  |  |  |  |  | > 1000 |  |  |  |
| Cc1cc2ccccc2n1CCNC(=O)c1ccc(C#N)cc1 |  |  |  |  |  | 140 |  |  |  |
| Cc1[nH]c2ccccc2c1CCNC(=O)c1ccc(N2CCN(C)CC2)cc1 |  |  |  |  |  | 135 |  |  |  |
| Cc1cc2ccccc2n1CCNC(=O)c1ccc(N2CCCCCC2)cc1 | 64 | < 25 | 66 | 37 | 12 | 22.6 | 49 | 28 | selectivity ratio (EP2 receptor): 14500; Ratio (Homo sapiens [9]): 1040; Ratio (Homo sapiens [10]): 342; Kb [11]: 23600 nM; CC50 (C6): 327000 nM; Kb [12]: 7720 nM; Ratio (Homo sapiens [13]): 375; Kb [14]: 8500 nM |
| Cc1cc2ccccc2n1C1CCCN(C(=O)c2ccc(N3CCOCC3)cc2)C1 (stereo not given) |  |  |  |  |  | > 1000 |  |  |  |
| CCN(CC)c1ccc(C(=O)NCCn2c(C)cc3ccccc32)cc1F |  |  |  |  |  | 4.6 |  |  |  |
| CCNc1ccc(C(=O)NCCn2c(C)cc3ccccc32)cc1 |  |  |  |  |  | 15.5 |  |  |  |
| Cc1cc2ccccc2n1CCNC(=O)c1ccc(-n2cnnn2)cc1 | 54 | < 25 | 75 | 26 | 7.5 | 42.2 | 50 | 26 |  |
| CCNc1ncc(C(=O)NCCn2c(C)cc3ccccc32)cn1 |  |  |  |  |  | 57.8 |  |  |  |
